Experimental data taken from paper PMC5448077, “Development of an orally available inhibitor of CLK1 for skipping a mutated dystrophin exon in Duchenne muscular dystrophy” (Scientific Reports, 2017).

Key:
[1] = molecular target: T1, CDC2-like kinase 1 (CLK1) (Homo sapiens, UniProt P49759); design: recombinant GST-tagged human CLK1; conditions: 1 µM; inhibitor
Description: These assays rely on the phosphorylation of small synthetic peptides developed for each kinase, and detect activity by changes in electrophoretic mobility (MSA assay) or by binding of a fluorescently labelled peptide to a large micro-particle and concomitant polarization increases (IMAP assay). […] Inhibitor (4×), substrate/ATP-Metal (4×), and kinase (2×) solutions were prepared with assay buffer (20 mM HEPES, 0.01% Triton X-100, 2 mM DTT, pH 7.5) and mixed in 384-well plates at room temperature for 1 or 5 h depending on the kinase. Reactions were stopped by the addition of termination buffer (QuickScout Screening Assist MSA; Carna Biosciences). The entire reaction mixture was then applied to a LabChip system (Perkin-Elmer, Waltham, MA, USA) and the product and substrate peptide peaks were separated and quantified, and then heights of product (P) and substrate (S) peptide peaks were calculated. The level of kinase activity was evaluated with the following equation: activity = P/(P + S).

[2] = molecular target: T1, CDC2-like kinase 1 (CLK1); assay: biochemical
PKCβ1 = molecular target: T2, PKCβ1 (Homo sapiens, UniProt P05771); assay: biochemical
T2 construct: gene PRKCB; isoform beta 1
T2 sequence (P05771 whole entry, canonical isoform): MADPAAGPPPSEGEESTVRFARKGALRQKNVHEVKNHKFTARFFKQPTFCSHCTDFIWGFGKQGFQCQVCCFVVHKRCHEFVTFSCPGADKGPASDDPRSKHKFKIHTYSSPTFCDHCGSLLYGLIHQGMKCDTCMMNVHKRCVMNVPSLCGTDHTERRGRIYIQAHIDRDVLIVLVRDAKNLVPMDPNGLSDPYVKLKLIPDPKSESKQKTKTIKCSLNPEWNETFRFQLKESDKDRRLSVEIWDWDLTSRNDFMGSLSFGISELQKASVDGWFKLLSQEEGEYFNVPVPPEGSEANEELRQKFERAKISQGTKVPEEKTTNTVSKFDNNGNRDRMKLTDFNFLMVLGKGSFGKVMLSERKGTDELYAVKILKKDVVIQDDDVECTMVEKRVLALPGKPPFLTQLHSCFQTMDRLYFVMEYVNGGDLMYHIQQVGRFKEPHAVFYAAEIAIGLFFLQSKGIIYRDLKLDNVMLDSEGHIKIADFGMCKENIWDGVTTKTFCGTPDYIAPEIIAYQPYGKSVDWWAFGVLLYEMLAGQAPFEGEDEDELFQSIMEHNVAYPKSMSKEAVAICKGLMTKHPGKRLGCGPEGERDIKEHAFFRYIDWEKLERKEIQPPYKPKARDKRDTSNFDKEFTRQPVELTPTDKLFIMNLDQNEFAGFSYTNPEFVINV
Description: (§1) These assays rely on the phosphorylation of small synthetic peptides developed for each kinase, and detect activity by changes in electrophoretic mobility (MSA assay) or by binding of a fluorescently labelled peptide to a large micro-particle and concomitant polarization increases (IMAP assay). Reaction conditions for each kinase are described in Supplementary Table S5. All kinase assays were carried out at Carna Biosciences (Kobe, Japan). The inhibitory map was constructed using Kinome Render[41]. Inhibitor (4×), substrate/ATP-Metal (4×), and kinase (2×) solutions were prepared with assay buffer (20 mM HEPES, 0.01% Triton X-100, 2 mM DTT, pH 7.5) and mixed in 384-well plates at room temperature for 1 or 5 h depending on the kinase. Reactions were stopped by the addition of termination buffer (QuickScout Screening Assist MSA; Carna Biosciences). The entire reaction mixture was then applied to a LabChip system (Perkin-Elmer, Waltham, MA, USA) and the product and substrate peptide peaks were separated and quantified, and then heights of product (P) and substrate (S) peptide peaks were calculated. The level of kinase activity was evaluated with the following equation: activity = P/(P + S).

CaMK2γ = molecular target: T3, CaMK2γ (Homo sapiens, UniProt Q13555); assay: biochemical
T3 construct: gene CAMK2G
Description: as §1

EGFR(L858R) = EGFR(L858R) (Homo sapiens, UniProt P00533, L858R); assay: biochemical
Description: as §1

IKKα = molecular target: T4, IKKα (Homo sapiens, UniProt O15111); assay: biochemical
T4 construct: gene CHUK
Description: as §1

PDGFRα(T674I) = molecular target: T5, PDGFRα(T674I) (Homo sapiens, UniProt P16234, T674I); assay: biochemical
T5 construct: gene PDGFRA
Description: as §1

AMPKα2/β1/γ1 = molecular target: T6, AMPKα2/β1/γ1 (Homo sapiens, UniProt P54646); assay: biochemical
T6 construct: gene PRKAA2
Description: as §1

SIK = molecular target: T7, SIK (Homo sapiens, UniProt P57059); assay: biochemical
T7 construct: gene SIK1
T7 sequence (P57059 whole entry): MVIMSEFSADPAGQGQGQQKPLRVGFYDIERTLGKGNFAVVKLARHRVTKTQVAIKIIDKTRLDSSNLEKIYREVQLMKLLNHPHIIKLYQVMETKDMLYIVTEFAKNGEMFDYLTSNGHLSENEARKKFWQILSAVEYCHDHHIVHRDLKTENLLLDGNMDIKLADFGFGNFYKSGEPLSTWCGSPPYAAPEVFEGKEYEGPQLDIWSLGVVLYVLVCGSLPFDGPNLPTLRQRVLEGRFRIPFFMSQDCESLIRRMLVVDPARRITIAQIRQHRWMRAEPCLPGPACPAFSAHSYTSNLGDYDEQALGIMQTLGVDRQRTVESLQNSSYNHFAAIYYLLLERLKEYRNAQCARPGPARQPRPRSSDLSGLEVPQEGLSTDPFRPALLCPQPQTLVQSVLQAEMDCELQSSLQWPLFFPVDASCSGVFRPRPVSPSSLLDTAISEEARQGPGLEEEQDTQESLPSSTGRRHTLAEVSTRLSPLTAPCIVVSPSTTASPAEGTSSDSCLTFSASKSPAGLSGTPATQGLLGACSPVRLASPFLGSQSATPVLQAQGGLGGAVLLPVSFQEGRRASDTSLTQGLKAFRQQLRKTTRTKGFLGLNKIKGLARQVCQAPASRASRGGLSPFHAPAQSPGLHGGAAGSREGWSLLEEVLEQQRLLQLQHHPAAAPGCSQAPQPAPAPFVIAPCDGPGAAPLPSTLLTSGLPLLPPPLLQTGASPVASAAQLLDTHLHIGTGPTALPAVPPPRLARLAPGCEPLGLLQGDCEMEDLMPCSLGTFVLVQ
Description: as §1

PKCζ = molecular target: T8, PKCζ (Homo sapiens, UniProt Q05513); assay: biochemical
T8 construct: gene PRKCZ
T8 sequence (Q05513 whole entry): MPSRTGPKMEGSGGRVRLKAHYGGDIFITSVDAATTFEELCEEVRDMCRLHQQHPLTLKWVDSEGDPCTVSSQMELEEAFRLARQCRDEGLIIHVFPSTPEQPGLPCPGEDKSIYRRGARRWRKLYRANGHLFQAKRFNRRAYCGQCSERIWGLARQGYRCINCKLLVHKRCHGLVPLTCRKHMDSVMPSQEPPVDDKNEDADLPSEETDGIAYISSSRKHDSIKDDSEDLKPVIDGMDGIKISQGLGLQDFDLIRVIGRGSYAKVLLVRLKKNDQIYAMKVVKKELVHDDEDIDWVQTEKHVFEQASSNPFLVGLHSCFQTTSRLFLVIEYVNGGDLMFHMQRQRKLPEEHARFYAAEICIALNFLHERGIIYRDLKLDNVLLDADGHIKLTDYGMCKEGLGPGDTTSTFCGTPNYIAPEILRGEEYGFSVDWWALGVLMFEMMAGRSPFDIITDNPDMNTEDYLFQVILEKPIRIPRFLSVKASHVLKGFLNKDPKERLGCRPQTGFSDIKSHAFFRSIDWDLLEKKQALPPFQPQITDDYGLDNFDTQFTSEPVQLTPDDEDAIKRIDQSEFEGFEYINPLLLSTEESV
Description: as §1

NEK7 = NEK7 (Homo sapiens, UniProt Q8TDX7); assay: biochemical
Description: as §1

GSK3β = molecular target: T9, GSK3β (Homo sapiens, UniProt P49841); assay: biochemical
T9 construct: gene GSK3B
Description: as §1

p38α = molecular target: T10, p38α (Homo sapiens, UniProt Q16539); assay: biochemical
T10 construct: gene MAPK14
T10 sequence (Q16539 whole entry): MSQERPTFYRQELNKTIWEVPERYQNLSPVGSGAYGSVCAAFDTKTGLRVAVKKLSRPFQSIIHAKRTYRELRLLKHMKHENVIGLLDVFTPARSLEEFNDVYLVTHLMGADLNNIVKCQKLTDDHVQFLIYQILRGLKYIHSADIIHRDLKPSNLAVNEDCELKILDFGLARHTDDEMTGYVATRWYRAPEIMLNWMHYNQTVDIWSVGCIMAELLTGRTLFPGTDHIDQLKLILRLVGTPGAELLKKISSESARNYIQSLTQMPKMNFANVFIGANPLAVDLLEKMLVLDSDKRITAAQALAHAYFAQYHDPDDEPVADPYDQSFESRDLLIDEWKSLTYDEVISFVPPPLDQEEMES
Description: as §1

PLK2 = PLK2 (Homo sapiens, UniProt Q9NYY3); assay: biochemical
Description: as §1

HER2 = molecular target: T11, HER2 (Homo sapiens, UniProt P04626); assay: biochemical
T11 construct: gene ERBB2
Description: as §1

ITK = ITK (Homo sapiens, UniProt Q08881); assay: biochemical
Description: as §1

HER4 = molecular target: T12, HER4 (Homo sapiens, UniProt Q15303); assay: biochemical
T12 construct: gene ERBB4
Description: as §1

PKCε = molecular target: T13, PKCε (Homo sapiens, UniProt Q02156); assay: biochemical
T13 construct: gene PRKCE
Description: as §1

CK1α = molecular target: T14, CK1α (Homo sapiens, UniProt P48729); assay: biochemical
T14 construct: gene CSNK1A1
Description: as §1

YES(T348I) = molecular target: T15, YES(T348I) (Homo sapiens, UniProt P07947, T348I); assay: biochemical
T15 construct: gene YES1
Description: as §1

PDGFRα(V561D) = molecular target: T16, PDGFRα(V561D) (Homo sapiens, UniProt P16234, V561D); assay: biochemical
T16 construct: gene PDGFRA
Description: as §1

PAK6 = PAK6 (Homo sapiens, UniProt Q9NQU5); assay: biochemical
Description: as §1

BRSK1 = BRSK1 (Homo sapiens, UniProt Q8TDC3); assay: biochemical
Description: as §1

TBK1 = TBK1 (Homo sapiens, UniProt Q9UHD2); assay: biochemical
Sequence of TBK1 (Q9UHD2 whole entry): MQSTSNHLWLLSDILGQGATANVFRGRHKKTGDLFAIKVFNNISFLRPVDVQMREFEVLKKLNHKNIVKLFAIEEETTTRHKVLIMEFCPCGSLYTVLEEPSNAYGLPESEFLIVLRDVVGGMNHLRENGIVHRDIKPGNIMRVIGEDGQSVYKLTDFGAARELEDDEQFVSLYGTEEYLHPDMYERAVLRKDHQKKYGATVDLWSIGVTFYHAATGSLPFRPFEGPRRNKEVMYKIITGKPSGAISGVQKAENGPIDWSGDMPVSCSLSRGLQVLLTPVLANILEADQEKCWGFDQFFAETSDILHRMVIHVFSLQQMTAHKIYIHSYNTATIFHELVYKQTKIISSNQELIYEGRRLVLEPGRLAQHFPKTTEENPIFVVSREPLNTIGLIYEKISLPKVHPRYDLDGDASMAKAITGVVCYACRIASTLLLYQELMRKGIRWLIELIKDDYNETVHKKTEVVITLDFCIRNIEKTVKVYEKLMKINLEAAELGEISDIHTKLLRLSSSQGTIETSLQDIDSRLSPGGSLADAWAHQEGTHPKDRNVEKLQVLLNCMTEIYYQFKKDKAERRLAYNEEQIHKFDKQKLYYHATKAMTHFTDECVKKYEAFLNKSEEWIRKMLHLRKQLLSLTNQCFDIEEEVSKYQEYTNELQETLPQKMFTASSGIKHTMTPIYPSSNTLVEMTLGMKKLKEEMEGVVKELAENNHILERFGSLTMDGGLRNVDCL
Description: as §1

CSK = CSK (Homo sapiens, UniProt P41240); assay: biochemical
Description: as §1

TRKC = molecular target: T17, TRKC (Homo sapiens, UniProt Q16288); assay: biochemical
T17 construct: gene NTRK3
Description: as §1

FGFR4(V550L) = FGFR4(V550L) (Homo sapiens, UniProt P22455, V550L); assay: biochemical
Sequence of FGFR4(V550L) (P22455 whole entry V550L): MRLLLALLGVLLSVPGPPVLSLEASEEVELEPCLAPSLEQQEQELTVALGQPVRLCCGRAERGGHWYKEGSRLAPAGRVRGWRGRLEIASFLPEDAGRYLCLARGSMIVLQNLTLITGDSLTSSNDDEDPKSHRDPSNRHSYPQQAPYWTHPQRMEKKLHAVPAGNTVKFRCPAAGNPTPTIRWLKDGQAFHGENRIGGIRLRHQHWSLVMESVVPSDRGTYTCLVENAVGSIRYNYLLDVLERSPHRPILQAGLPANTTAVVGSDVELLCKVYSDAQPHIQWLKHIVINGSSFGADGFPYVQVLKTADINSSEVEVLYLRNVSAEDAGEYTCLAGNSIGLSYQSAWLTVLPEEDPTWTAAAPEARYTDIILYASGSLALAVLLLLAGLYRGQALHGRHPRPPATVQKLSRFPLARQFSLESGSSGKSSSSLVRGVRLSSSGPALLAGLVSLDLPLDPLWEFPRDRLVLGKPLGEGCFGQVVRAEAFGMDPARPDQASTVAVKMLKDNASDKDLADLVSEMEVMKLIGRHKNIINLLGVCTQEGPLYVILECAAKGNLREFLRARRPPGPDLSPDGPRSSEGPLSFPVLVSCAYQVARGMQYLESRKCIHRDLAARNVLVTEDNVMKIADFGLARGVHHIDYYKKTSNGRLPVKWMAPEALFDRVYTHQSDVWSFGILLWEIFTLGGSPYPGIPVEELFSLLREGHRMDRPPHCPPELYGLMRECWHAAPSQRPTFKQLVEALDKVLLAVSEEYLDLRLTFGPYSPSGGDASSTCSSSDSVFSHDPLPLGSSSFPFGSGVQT
Description: as §1

CLK2 = CLK2 (Homo sapiens, UniProt P49760); assay: biochemical
Sequence of CLK2 (P49760 whole entry): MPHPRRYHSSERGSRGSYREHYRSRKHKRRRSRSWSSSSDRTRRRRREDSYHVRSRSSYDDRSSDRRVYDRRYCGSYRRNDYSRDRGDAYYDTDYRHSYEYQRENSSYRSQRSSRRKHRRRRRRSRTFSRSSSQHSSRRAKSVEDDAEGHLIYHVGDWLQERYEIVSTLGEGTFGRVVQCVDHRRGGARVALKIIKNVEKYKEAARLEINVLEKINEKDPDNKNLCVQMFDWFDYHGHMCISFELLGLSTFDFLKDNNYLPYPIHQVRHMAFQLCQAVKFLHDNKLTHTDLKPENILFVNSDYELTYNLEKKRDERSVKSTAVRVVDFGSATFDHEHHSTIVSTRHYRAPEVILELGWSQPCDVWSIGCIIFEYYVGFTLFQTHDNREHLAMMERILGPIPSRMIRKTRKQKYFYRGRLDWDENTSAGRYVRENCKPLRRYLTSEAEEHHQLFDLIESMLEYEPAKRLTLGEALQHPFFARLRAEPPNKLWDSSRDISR
Description: as §1

AurB = molecular target: T18, AurB (Homo sapiens, UniProt Q96GD4); assay: biochemical
T18 construct: gene AURKB
Description: as §1

RET(G691S) = RET(G691S) (Homo sapiens, UniProt P07949, G691S); assay: biochemical
Description: as §1

T1 sequence (P49759 whole entry): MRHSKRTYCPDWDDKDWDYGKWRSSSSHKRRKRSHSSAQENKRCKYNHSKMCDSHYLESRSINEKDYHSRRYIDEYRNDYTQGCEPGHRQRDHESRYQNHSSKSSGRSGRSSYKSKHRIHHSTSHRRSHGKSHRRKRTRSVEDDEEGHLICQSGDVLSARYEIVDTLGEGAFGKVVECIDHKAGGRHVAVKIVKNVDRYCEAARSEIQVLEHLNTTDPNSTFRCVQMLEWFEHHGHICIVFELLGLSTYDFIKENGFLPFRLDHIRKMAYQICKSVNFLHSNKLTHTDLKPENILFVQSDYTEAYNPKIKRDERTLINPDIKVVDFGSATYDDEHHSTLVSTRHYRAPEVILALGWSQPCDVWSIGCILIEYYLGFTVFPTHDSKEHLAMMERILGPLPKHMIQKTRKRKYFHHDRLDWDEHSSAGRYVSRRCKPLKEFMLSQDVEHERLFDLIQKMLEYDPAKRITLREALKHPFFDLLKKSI

Question: What does the source list for `c1cc(-c2ccc3[nH]ncc3c2)ccn1` [TG693, 5-(4-pyridinyl)-1H-indazole]?
Answer: %Inhibition [1]: 92.6%; Ki [2]: 105 nM; inhibition at 1 µM (PKCβ1): -11.4%; inhibition at 1 µM (CaMK2γ): -2.4%; inhibition at 1 µM (EGFR(L858R)): 0.4%; inhibition at 1 µM (IKKα): 14.6%; inhibition at 1 µM (PDGFRα(T674I)): 7.6%; inhibition at 1 µM (AMPKα2/β1/γ1): 1.7%; inhibition at 1 µM (SIK): 3.2%; inhibition at 1 µM (PKCζ): -9.7%; inhibition at 1 µM (NEK7): -9%; inhibition at 1 µM (GSK3β): 8.5%; inhibition at 1 µM (p38α): -0.1%; inhibition at 1 µM (PLK2): 2.9%; inhibition at 1 µM (HER2): -3.8%; inhibition at 1 µM (ITK): 2.8%; inhibition at 1 µM (HER4): 5.8%; inhibition at 1 µM (PKCε): 12.3%; inhibition at 1 µM (CK1α): 11.9%; inhibition at 1 µM (YES(T348I)): -1.4%; inhibition at 1 µM (PDGFRα(V561D)): 2.7%; inhibition at 1 µM (PAK6): -4.3%; inhibition at 1 µM (BRSK1): 1.1%; inhibition at 1 µM (TBK1): 5.8%; inhibition at 1 µM (CSK): -1.2%; inhibition at 1 µM (TRKC): 7.7%; inhibition at 1 µM (FGFR4(V550L)): -36.6%; inhibition at 1 µM (CLK2): 14.9%; inhibition at 1 µM (AurB): 6.1%; inhibition at 1 µM (RET(G691S)): 4.9%
